# How the values were obtained:
# [1] = target: T1, ASFV protease (pS273R) (African swine fever virus BA71V, UniProt Q00946); assay type: biochemical
# T1 construct: gene Ba71V-111
# [2] = target: T1, ASFV protease (pS273R); assay: biochemical
# T1 sequence (Q00946 whole entry, looked up): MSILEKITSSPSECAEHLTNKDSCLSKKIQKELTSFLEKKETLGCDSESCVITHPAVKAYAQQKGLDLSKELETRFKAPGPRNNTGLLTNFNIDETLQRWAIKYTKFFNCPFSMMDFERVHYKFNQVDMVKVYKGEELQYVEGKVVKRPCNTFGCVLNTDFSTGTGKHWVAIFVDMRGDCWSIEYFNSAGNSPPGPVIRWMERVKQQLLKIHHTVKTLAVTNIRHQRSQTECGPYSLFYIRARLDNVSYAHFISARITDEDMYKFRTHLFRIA
SMILES,RFU at 40 μM [1],IC50 [2]
O=c1c(O)c(-c2ccc(O)cc2)oc2c(O)c(O)cc(O)c12 [herbacetin],"Its activity, however, is similar to those of herbacetin, kaempferol and morin",
O=c1c(O)c(-c2ccc(O)cc2)oc2cc(O)cc(O)c12 [kaempferol],"Its activity, however, is similar to those of herbacetin, kaempferol and morin",
O=c1c(O)c(-c2ccc(O)cc2O)oc2cc(O)cc(O)c12 [morin],"Its activity, however, is similar to those of herbacetin, kaempferol and morin",
"O=c1c(O)c(-c2cc(O)c(O)c(O)c2)oc2cc(O)cc(O)c12 [myricetin, 3,3′,4′,5,5′,7-Hexahydroxyflavone]",,8.4 µM
C[C@@H]1O[C@@H](Oc2c(-c3cc(O)c(O)c(O)c3)oc3cc(O)cc(O)c3c2=O)[C@H](O)[C@H](O)[C@H]1O [myricitrin],,2.7 µM
